US9302999B2, “Substituted triazoles as herbicides” (E. I. DU PONT DE NEMOURS AND COMPANY, priority 2012, dated 2016)

Key:
Assay type in all cases: in vivo
[1] = system: barnyardgrass (Echinochloa crus-galli); assay: Test A pre-/postemergence: barnyardgrass
In short: (§1)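 Each species received preemergence soil-directed spraying and, at the same time, postemergence treatment of seedlings 2–10 cm tall. Formulation: non-phytotoxic solvent mixture including surfactant. Response assessed visually about ten days on, relative to untreated controls, 0–100 scale.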

[2] = system: corn (Zea mays); assay: Test A pre-/postemergence: corn
In short: as §1

[3] = system: crabgrass, large (large crabgrass, Digitaria sanguinalis); assay: Test A pre-/postemergence: crabgrass, large
In short: as §1

[4] = system: foxtail, giant (giant foxtail, Setaria faberii); assay: Test A pre-/postemergence: foxtail, giant
In short: as §1

[5] = system: barnyardgrass (Echinochloa crus-galli); assay: Test B flooded paddy: barnyardgrass; settings: Flood, applied to paddy water at 2-leaf stage, visually evaluated after 13 to 15 days
In short: (§2)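 Visual ratings on a 0–100 scale, where 0 means no effect and 100 means complete control, were assigned by comparison with controls 13 to 15 days after treatment. Compounds went into paddy water over 2-leaf plants flooded to 3 cm.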

[6] = system: sedge, umbrella (small-flower umbrella sedge Cyperus difformis); assay: Test B flooded paddy: sedge, umbrella; settings: Flood, applied to paddy water at 2-leaf stage, visually evaluated after 13 to 15 days
In short: as §2

[7] = system: wheat (Triticum aestivum); assay: Test A pre-/postemergence: wheat
In short: as §1

[8] = system: morningglory (Ipomoea spp.); assay: Test A pre-/postemergence: morningglory
In short: as §1

[9] = system: ducksalad (Heteranthera limosa); assay: Test B flooded paddy: ducksalad; settings: Flood, applied to paddy water at 2-leaf stage, visually evaluated after 13 to 15 days
In short: as §2

[10] = system: rice (Oryza sativa); assay: Test B flooded paddy: rice; settings: Flood, applied to paddy water at 2-leaf stage, visually evaluated after 13 to 15 days
In short: as §2

[11] = system: velvetleaf (Abutilon theophrasti); assay: Test A pre-/postemergence: velvetleaf
In short: as §1

[12] = system: pigweed (Amaranthus retroflexus); assay: Test A pre-/postemergence: pigweed
In short: as §1

[13] = Postemergence, 125 g ai/ha, 0 to 100 scale, 0 is no effect, 100 is complete control
[14] = Postemergence, 500 g ai/ha, visual rating on 0 to 100 scale (0 no effect, 100 complete control), approximately ten days
[15] = Preemergence, 125 g ai/ha, 0 to 100 scale where 0 is no effect and 100 is complete control
[16] = Preemergence, 500 g ai/ha, 0 to 100 scale (0 no effect, 100 complete control)
[17] = Postemergence, 1000 g ai/ha, visual rating on 0 to 100 scale (0 no effect, 100 complete control), approximately ten days
[18] = Preemergence, 1000 g ai/ha, 0 to 100 scale, 0 is no effect, 100 is complete control
[19] = Postemergence, 500 g ai/ha, 0 to 100 scale, 0 is no effect, 100 is complete control

SMILES: Cc1nn(-c2ccc(F)cc2)nc1Cc1cccc(C(F)(F)F)c1 [Compound 157]
- Plant response rating, Barnyardgrass [1, 13]: 20
- Barnyardgrass plant response rating [1, 14]: 70
- Plant response rating, Barnyardgrass [1, 15]: 20
- Plant response rating, Barnyardgrass [1, 16]: 100
- Plant response rating, Corn [2, 13]: 20
- Corn plant response rating [2, 14]: 40
- Plant response rating, Corn [2, 15]: 0
- Plant response rating, Corn [2, 16]: 0
- Plant response rating, Crabgrass, Large [3, 13]: 40
- Crabgrass, Large plant response rating [3, 14]: 80
- Plant response rating, Crabgrass, Large [3, 15]: 20
- Plant response rating, Crabgrass, Large [3, 16]: 90
- Plant response rating, Foxtail, Giant [4, 13]: 80
- Foxtail, Giant plant response rating [4, 14]: 90
- Plant response rating, Foxtail, Giant [4, 15]: 90
- Plant response rating, Foxtail, Giant [4, 16]: 100
- Plant response rating, Barnyardgrass (0 to 100 scale, 0 is no effect, 100 is complete control) ([5]; 250 g ai/ha): 0
- Plant response rating, Sedge, Umbrella (0 to 100 scale, 0 is no effect, 100 is complete control) ([6]; 250 g ai/ha): 40
- Plant response rating, Wheat [7, 13]: 0
- Wheat plant response rating [7, 14]: 20
- Plant response rating, Wheat [7, 15]: 0
- Plant response rating, Wheat [7, 16]: 0
- Plant response rating, Morningglory [8, 13]: 60
- Morningglory plant response rating [8, 14]: 80
- Plant response rating, Morningglory [8, 15]: 0
- Plant response rating, Morningglory [8, 16]: 0
- Plant response rating, Ducksalad (0 to 100 scale, 0 is no effect, 100 is complete control) ([9]; 250 g ai/ha): 20
- Plant response rating, Rice (0 to 100 scale, 0 is no effect, 100 is complete control) ([10]; 250 g ai/ha): 0
- Plant response rating, Velvetleaf [11, 13]: 40
- Plant response rating, Velvetleaf [11, 15]: 0
- Plant response rating, Velvetleaf [11, 16]: 0
- Plant response rating, Pigweed [12, 13]: 100
- Pigweed plant response rating [12, 14]: 100
- Plant response rating, Pigweed [12, 15]: 80
- Plant response rating, Pigweed [12, 16]: 100

SMILES: Cc1nn(-c2ccc(F)cc2)nc1C(=O)c1ccnc(C(F)(F)F)c1 [Compound 167]
- Barnyardgrass plant response rating [1, 17]: 100
- Plant response rating, Barnyardgrass [1, 18]: 100
- Corn plant response rating [2, 17]: 30
- Plant response rating, Corn [2, 18]: 30
- Crabgrass, Large plant response rating [3, 17]: 100
- Plant response rating, Crabgrass, Large [3, 18]: 100
- Foxtail, Giant plant response rating [4, 17]: 100
- Plant response rating, Foxtail, Giant [4, 18]: 100
- Plant response rating, Barnyardgrass (0 to 100 scale, 0 is no effect, 100 is complete control) ([5]; 125 g ai/ha): 0
- Plant response rating, Sedge, Umbrella (0 to 100 scale, 0 is no effect, 100 is complete control) ([6]; 125 g ai/ha): 50
- Wheat plant response rating [7, 17]: 40
- Plant response rating, Wheat [7, 18]: 80
- Morningglory plant response rating [8, 17]: 100
- Plant response rating, Ducksalad (0 to 100 scale, 0 is no effect, 100 is complete control) ([9]; 125 g ai/ha): 0
- Plant response rating, Rice (0 to 100 scale, 0 is no effect, 100 is complete control) ([10]; 125 g ai/ha): 30
- Velvetleaf plant response rating [11, 17]: 50
- Plant response rating, Velvetleaf [11, 18]: 20
- Pigweed plant response rating [12, 17]: 100
- Plant response rating, Pigweed [12, 18]: 100

SMILES: CC(C)(C)c1nn(-c2ccc(F)cc2)nc1Cc1ccnc(C(F)(F)F)c1 [Compound 176]
- Plant response rating, Barnyardgrass [1, 13]: 0
- Barnyardgrass plant response rating [1, 19]: 0
- Plant response rating, Barnyardgrass [1, 15]: 0
- Plant response rating, Barnyardgrass [1, 16]: 0
- Plant response rating, Corn [2, 13]: 0
- Corn plant response rating [2, 19]: 0
- Plant response rating, Corn [2, 15]: 0
- Plant response rating, Corn [2, 16]: 0
- Plant response rating, Crabgrass, Large [3, 13]: 0
- Crabgrass, Large plant response rating [3, 19]: 0
- Plant response rating, Crabgrass, Large [3, 15]: 0
- Plant response rating, Crabgrass, Large [3, 16]: 0
- Plant response rating, Foxtail, Giant [4, 13]: 0
- Foxtail, Giant plant response rating [4, 19]: 0
- Plant response rating, Foxtail, Giant [4, 15]: 0
- Plant response rating, Foxtail, Giant [4, 16]: 0
- Plant response rating, Barnyardgrass (0 to 100 scale, 0 is no effect, 100 is complete control) ([5]; 125 g ai/ha): 0
- Plant response rating, Sedge, Umbrella (0 to 100 scale, 0 is no effect, 100 is complete control) ([6]; 125 g ai/ha): 0
- Plant response rating, Wheat [7, 13]: 0
- Wheat plant response rating [7, 19]: 0
- Plant response rating, Wheat [7, 15]: 0
- Plant response rating, Wheat [7, 16]: 0
- Plant response rating, Morningglory [8, 13]: 0
- Morningglory plant response rating [8, 19]: 0
- Plant response rating, Morningglory [8, 15]: 0
- Plant response rating, Morningglory [8, 16]: 0
- Plant response rating, Ducksalad (0 to 100 scale, 0 is no effect, 100 is complete control) ([9]; 125 g ai/ha): 0
- Plant response rating, Rice (0 to 100 scale, 0 is no effect, 100 is complete control) ([10]; 125 g ai/ha): 0
- Plant response rating, Velvetleaf [11, 13]: 0
- Velvetleaf plant response rating [11, 19]: 0
- Plant response rating, Velvetleaf [11, 15]: 0
- Plant response rating, Velvetleaf [11, 16]: 0
- Plant response rating, Pigweed [12, 13]: 0
- Pigweed plant response rating [12, 19]: 0
- Plant response rating, Pigweed [12, 15]: 0
- Plant response rating, Pigweed [12, 16]: 0

SMILES: CCOc1nn(-c2ccc(F)cc2)nc1C(=O)c1ccnc(C(F)(F)F)c1 [Compound 177]
- Plant response rating, Barnyardgrass [1, 13]: 0
- Barnyardgrass plant response rating [1, 19]: 20
- Plant response rating, Barnyardgrass [1, 15]: 0
- Plant response rating, Barnyardgrass [1, 16]: 70
- Plant response rating, Corn [2, 13]: 20
- Corn plant response rating [2, 19]: 30
- Plant response rating, Corn [2, 15]: 0
- Plant response rating, Corn [2, 16]: 0
- Plant response rating, Crabgrass, Large [3, 13]: 10
- Crabgrass, Large plant response rating [3, 19]: 60
- Plant response rating, Crabgrass, Large [3, 15]: 90
- Plant response rating, Crabgrass, Large [3, 16]: 100
- Plant response rating, Foxtail, Giant [4, 13]: 20
- Foxtail, Giant plant response rating [4, 19]: 70
- Plant response rating, Foxtail, Giant [4, 15]: 90
- Plant response rating, Foxtail, Giant [4, 16]: 100
- Plant response rating, Barnyardgrass (0 to 100 scale, 0 is no effect, 100 is complete control) ([5]; 125 g ai/ha): 0
- Plant response rating, Sedge, Umbrella (0 to 100 scale, 0 is no effect, 100 is complete control) ([6]; 125 g ai/ha): 40
- Plant response rating, Wheat [7, 13]: 20
- Wheat plant response rating [7, 19]: 30
- Plant response rating, Wheat [7, 15]: 0
- Plant response rating, Wheat [7, 16]: 0
- Plant response rating, Morningglory [8, 13]: 90
- Morningglory plant response rating [8, 19]: 100
- Plant response rating, Morningglory [8, 15]: 20
- Plant response rating, Morningglory [8, 16]: 40
- Plant response rating, Ducksalad (0 to 100 scale, 0 is no effect, 100 is complete control) ([9]; 125 g ai/ha): 0
- Plant response rating, Rice (0 to 100 scale, 0 is no effect, 100 is complete control) ([10]; 125 g ai/ha): 0
- Plant response rating, Velvetleaf [11, 13]: 20
- Velvetleaf plant response rating [11, 19]: 50
- Plant response rating, Velvetleaf [11, 15]: 0
- Plant response rating, Velvetleaf [11, 16]: 20
- Plant response rating, Pigweed [12, 13]: 60
- Pigweed plant response rating [12, 19]: 100
- Plant response rating, Pigweed [12, 15]: 10
- Plant response rating, Pigweed [12, 16]: 50

SMILES: CCc1nn(-c2ccc(F)c(C(F)(F)F)c2)nc1Oc1ccnc(C(F)(F)F)c1 [Compound 180]
- Plant response rating, Barnyardgrass [1, 13]: 50
- Barnyardgrass plant response rating [1, 19]: 80
- Plant response rating, Barnyardgrass [1, 15]: 60
- Plant response rating, Barnyardgrass [1, 16]: 80
- Plant response rating, Corn [2, 13]: 20
- Corn plant response rating [2, 19]: 30
- Plant response rating, Corn [2, 15]: 10
- Plant response rating, Corn [2, 16]: 20
- Plant response rating, Crabgrass, Large [3, 13]: 90
- Crabgrass, Large plant response rating [3, 19]: 90
- Plant response rating, Crabgrass, Large [3, 15]: 100
- Plant response rating, Crabgrass, Large [3, 16]: 100
- Plant response rating, Foxtail, Giant [4, 13]: 90
- Foxtail, Giant plant response rating [4, 19]: 90
- Plant response rating, Foxtail, Giant [4, 15]: 100
- Plant response rating, Foxtail, Giant [4, 16]: 100
- Plant response rating, Barnyardgrass (0 to 100 scale, 0 is no effect, 100 is complete control) ([5]; 125 g ai/ha): 0
- Plant response rating, Sedge, Umbrella (0 to 100 scale, 0 is no effect, 100 is complete control) ([6]; 125 g ai/ha): 70
- Plant response rating, Wheat [7, 13]: 30
- Wheat plant response rating [7, 19]: 40
- Plant response rating, Wheat [7, 15]: 20
- Plant response rating, Wheat [7, 16]: 40
- Plant response rating, Morningglory [8, 13]: 100
- Morningglory plant response rating [8, 19]: 100
- Plant response rating, Morningglory [8, 15]: 40
- Plant response rating, Morningglory [8, 16]: 70
- Plant response rating, Ducksalad (0 to 100 scale, 0 is no effect, 100 is complete control) ([9]; 125 g ai/ha): 60
- Plant response rating, Rice (0 to 100 scale, 0 is no effect, 100 is complete control) ([10]; 125 g ai/ha): 30
- Plant response rating, Velvetleaf [11, 13]: 70
- Velvetleaf plant response rating [11, 19]: 100
- Plant response rating, Velvetleaf [11, 15]: 50
- Plant response rating, Velvetleaf [11, 16]: 60
- Plant response rating, Pigweed [12, 13]: 100
- Pigweed plant response rating [12, 19]: 100
- Plant response rating, Pigweed [12, 15]: 100
- Plant response rating, Pigweed [12, 16]: 100
